Assay results published in patent publication EP2430044B1, “PEPTIDES INCREASING THE SECRETION AND/OR EXPRESSION OF AT LEAST ONE GAS[…] AND/OR INDUCING THE INCREASE OF MUCUS CELLS OR PANETH CELLS” (Institut National de la Recherche Agronomique (INRA), priority 2009, dated 2010).

What was measured:
Format in all cases: cell-based, humaine
HT29-MTX = assay: Mucin secretion by HT29-MTX cells (ELLA on culture supernatants); details: pre-incubation with cyprodime 10^-5 M
Method: (§1) Les cellules HT29-MTX et HT29-CI16E étaient cultivées en flasques de 25 cm^2 avec du milieu minimum essentiel DMEM supplémenté avec 10% de SVF (sérum de veau foetal) et 1 % d'antibiotiques (pénicilline 10 000 Ul/ml et streptomycine […]). Les cellules étaient incubées à 37°C dans une atmosphère humide (5 % de CO2 et […]). A confluence, les cellules soumises au préalable à l'action de la trypsine (trypsine-EDTA) étaient cultivées dans des plaques 12 puits à raison de 1 ml de milieu de culture complet par puits. Afin de maintenir les cellules dans des conditions optimales de croissance, le milieu de culture était changé tous les 2 jours.
Les expériences ont été réalisées sur les plaques 12 puits 21 jours après confluence des cellules. La veille de la stimulation, les plaques étaient cultivées sans SVF. Le pool peptidique total des yaourts ainsi que les différentes fractions lyophilisées étaient d'abord repris dans de l'eau stérile en solution 10 fois concentrée (10[Y]), [Y] correspondant à la concentration des peptides dans le yaourt initial). L'osmolarité et le pH des échantillons (ajusté à la neutralité par NaOH) étaient contrôlés à ce stade. Des dilutions successives ([Y], [Y]/2 et [Y]/5) étaient ensuite réalisées dans du milieu de culture dépourvu de SVF. Le jour de l'expérience, le milieu était aspiré puis les cellules étaient lavées avec du PBS à 37°C. […]

MUC5AC = MUC5AC expression in HT29-MTX cells (RT-PCR); details: with cyprodime, quantitative RT-PCR (Lightcycler)
Method: as §1
(§2) Les expériences ont été réalisées sur les plaques 12 puits 21 jours après confluence des cellules. La veille de la stimulation, les plaques étaient cultivées sans SVF. Le pool peptidique total des yaourts ainsi que les différentes fractions lyophilisées étaient d'abord repris dans de l'eau stérile en solution 10 fois concentrée (10[Y]), [Y] correspondant à la concentration des peptides dans le yaourt initial). L'osmolarité et le pH des échantillons (ajusté à la neutralité par NaOH) étaient contrôlés à ce stade. […]
(§3) Les ARN ont été isolés et rétro-transcrits comme décrit précédemment puis les ADNc ont été quantifiés en capillaires à l'aide du kit « FastStart DNA Master SYBR Green l » sur un appareil « lightCycler » (Roche). […]

MUC2 = MUC2 expression in HT29-MTX cells (RT-PCR); details: with cyprodime 10^-5 M
Method: as §1, §2, §3

MUC4 = MUC4 expression in HT29-MTX cells (RT-PCR)
Method: as §1, §2, §3

COc1cccc2c1[C@]13CCN(CC4CC4)[C@H](C2)[C@]1(OC)CCC(=O)C3 [cyprodime]
sécrétion de mucines induite par la fraction F3 (HT29-MTX; fraction F3 at concentration Y): inhibe
sécrétion de mucines induite par la fraction C2 (HT29-MTX; then fraction C2 at concentration Y, 4 h): inhibe
augmentation du niveau des transcrits codant MUC5AC induite par la fraction F3 (MUC5AC): abolit
effet de la fraction C2 sur l'expression de MUC2 (MUC2): aboli
effet de la fraction C2 sur l'expression de MUC4 (MUC4; with cyprodime 10^-5 M): aboli
augmentation du niveau des transcrits codant MUC4 induite par la fraction F3 (MUC4; with cyprodime, quantitative RT-PCR (Lightcycler)): Un résultat identique
